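These data come from cells grown in 96-well plates and exposed to compound for 48 hours at five concentrations. Abbreviation: GI50, concentration required for 50% inhibition of growth.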 Activity calls are given as the source filed them. No stated cut-off is given here; in the data, active = GI50 up to about 1.1 µM and inactive = higher.
What was measured:
Assay in all cases: NCI tumour cell line growth inhibition, 48 h
KM12 = system: KM12
M14 = system: M14
HCC 2998 = system: HCC 2998
OVCAR-3 = system: OVCAR-3
EKVX = system: EKVX
DU-145 = system: DU-145
LOX IMVI = system: LOX IMVI
OVCAR-5 = system: OVCAR-5
SW-620 = system: SW-620
HL-60 = system: HL-60
SK-MEL-5 = system: SK-MEL-5
HT-29 = system: HT-29
RXF 393 = system: RXF 393
NCI/ADR-RES = system: NCI/ADR-RES
SF-295 = system: SF-295
PC-3 = system: PC-3
SF-268 = system: SF-268
U-251 = system: U-251
ACHN = system: ACHN
SN12C = system: SN12C
A498 = system: A498
786-0 = system: 786-0
T47D = system: T47D
SNB-19 = system: SNB-19
HOP-92 = system: HOP-92
MDA-N = system: MDA-N
HCT-15 = system: HCT-15
Malme-3M = system: Malme-3M
OVCAR-4 = system: OVCAR-4
SF-539 = system: SF-539
NCI-H460 = system: NCI-H460
HOP-62 = system: HOP-62
NCI-H23 = system: NCI-H23
TK-10 = system: TK-10
OVCAR-8 = system: OVCAR-8
SK-MEL-28 = system: SK-MEL-28
UO-31 = system: UO-31
UACC-62 = system: UACC-62
Hs-578T = system: Hs-578T
NCI-H226 = system: NCI-H226
MOLT-4 = system: MOLT-4
MDA-MB-231 = system: MDA-MB-231
SNB-75 = system: SNB-75
CCRF-CEM = system: CCRF-CEM
NCI-H522 = system: NCI-H522
MDA-MB-435 = system: MDA-MB-435
IGROV-1 = system: IGROV-1
BT-549 = system: BT-549
COLO 205 = system: COLO 205
UACC-257 = system: UACC-257
A549 = system: A549
RPMI-8226 = system: RPMI-8226
SK-OV-3 = system: SK-OV-3
HCT-116 = system: HCT-116
SK-MEL-2 = system: SK-MEL-2
MCF7 = system: MCF7
CAKI-1 = system: CAKI-1
K562 = system: K562

CC[C@H](C)[C@H]1NC(=O)[C@@H](NC(=O)[C@@H](CC(C)C)N(C)C(=O)C2CCCN2C(=O)[C@H](C)O)[C@@H](C)OC(=O)[C@H](Cc2ccccc2)N(C)C(=O)[C@@H]2CCCN2C(=O)[C@H](CC(C)C)NC(=O)[C@@H](C)C(=O)[C@H](C(C)C)OC(=O)C[C@@H]1O (stereo partly drawn)
GI50 (KM12): < 6.25 nM (active)
GI50 (M14): < 6.25 nM (active)
GI50 (HCC 2998): < 6.25 nM (active)
GI50 (OVCAR-3): < 6.25 nM (active)
GI50 (EKVX): < 6.25 nM (active)
GI50 (DU-145): < 6.25 nM (active)
GI50 (LOX IMVI): < 6.25 nM (active)
GI50 (OVCAR-5): < 6.25 nM (active)
GI50 (SW-620): < 6.25 nM (active)
GI50 (HL-60): 122 nM (active)
GI50 (SK-MEL-5): < 6.25 nM (active)
GI50 (HT-29): < 6.25 nM (active)
GI50 (RXF 393): < 6.25 nM (active)
GI50 (NCI/ADR-RES): 58.9 nM (active)
GI50 (SF-295): < 6.25 nM (active)
GI50 (PC-3): < 6.25 nM (active)
GI50 (SF-268): < 6.25 nM (active)
GI50 (U-251): < 6.25 nM (active)
GI50 (ACHN): < 6.25 nM (active)
GI50 (SN12C): < 6.25 nM (active)
GI50 (A498): < 6.25 nM (active)
GI50 (786-0): < 6.25 nM (active)
GI50 (T47D): < 6.25 nM (active)
GI50 (SNB-19): < 6.25 nM (active)
GI50 (HOP-92): < 6.25 nM (active)
GI50 (MDA-N): < 6.25 nM (active)
GI50 (HCT-15): 7.57 nM
GI50 (Malme-3M): < 6.25 nM (active)
GI50 (OVCAR-4): < 6.25 nM (active)
GI50 (SF-539): < 6.25 nM (active)
GI50 (NCI-H460): < 6.25 nM (active)
GI50 (HOP-62): < 6.25 nM (active)
GI50 (NCI-H23): < 6.25 nM (active)
GI50 (TK-10): < 6.25 nM (active)
GI50 (OVCAR-8): < 6.25 nM (active)
GI50 (SK-MEL-28): < 6.25 nM (active)
GI50 (UO-31): < 6.25 nM (active)
GI50 (UACC-62): < 6.25 nM (active)
GI50 (Hs-578T): < 6.25 nM (active)
GI50 (NCI-H226): < 6.25 nM (active)
GI50 (MOLT-4): < 6.25 nM (active)
GI50 (MDA-MB-231): < 6.25 nM (active)
GI50 (SNB-75): < 6.25 nM (active)
GI50 (CCRF-CEM): < 6.25 nM (active)
GI50 (NCI-H522): < 6.25 nM (active)
GI50 (MDA-MB-435): < 6.25 nM (active)
GI50 (IGROV-1): < 6.25 nM (active)
GI50 (BT-549): < 6.25 nM (active)
GI50 (COLO 205): < 6.25 nM (active)
GI50 (UACC-257): < 6.25 nM (active)
GI50 (A549): < 6.25 nM (active)
GI50 (RPMI-8226): < 6.25 nM (active)
GI50 (SK-OV-3): < 6.25 nM (active)
GI50 (HCT-116): < 6.25 nM (active)
GI50 (SK-MEL-2): < 6.25 nM (active)
GI50 (MCF7): < 6.25 nM (active)
GI50 (CAKI-1): < 6.25 nM (active)
GI50 (K562): < 6.25 nM (active)

Reference: ChEMBL document CHEMBL1201862, “PubChem BioAssay data set” (2004)
